Laboratory results reported in patent US20260279694A1, “ELECTROLYTE SOLUTION FOR HYBRID ELECTROLYTIC CAPACITORS AND HYBRID ELECTROLYTIC CAPACITOR” (SANYO CHEMICAL INDUSTRIES, LTD., priority 2023, published 2026).

assay: Measurement of acid dissociation constant (pKa) by titration in methanol; assay type: physicochemical; details: 25° C.; 1 part by weight acid in 99 parts methanol titrated with 0.1 mol/L methanolic potassium hydroxide; pH at half the titrant of first equivalence point
Method: At 25° C., 99 parts by weight of methanol was added to 1 part by weight of a carboxylic acid (A), and the contents were shaken and mixed until the carboxylic acid (A) was completely dissolved. A 0.1 mol/L methanolic potassium hydroxide solution was added dropwise to the resulting methanol solution of the carboxylic acid (A) to obtain a titration curve having inflection points, and among the inflection points, an inflection point at which the amount of titrant added was the smallest was defined as an equivalence point. The pH at half the amount of titrant added at the equivalence point on the obtained titration curve was read, and the pH was defined as the acid dissociation constant (pKa) of the carboxylic acid (A).
The pKa of the acid component (A′) was also measured in the same manner as the pKa of the carboxylic acid (A).

| Compound | Acid dissociation constant (pKa) | pKa |
| --- | --- | --- |
| O=C(O)c1c(C(=O)O)c(C(=O)O)c(C(=O)OCCO)c(C(=O)O)c1C(=O)O [Example A7, mellitic acid ethylene glycol monoester] | 1.7 |  |
| O=C(O)c1ccccc1C(=O)O [Phthalic acid, phthalic acid, reference compound] |  | 3.9 |
| O=C(O)CCCCCCCC(=O)O [Azelaic acid, azelaic acid, reference compound] |  | 6.7 |
| pyromellitic acid polyethylene glycol monoester [Example A6] | 2.9 |  |
| O=C(O)c1cc(C(=O)O)c(C(=O)OCCO)cc1C(=O)O [Example A5, pyromellitic acid ethylene glycol monoester] | 2.6 |  |
| O=C(O)c1ccccc1C(=O)OCCO [Example A1, phthalic acid ethylene glycol monoester] | 3.8 |  |
| trimellitic acid polyethylene glycol monoester [Example A4] | 3.6 |  |
| O=C(O)c1ccc(C(=O)O)c(C(=O)O)c1 [Trimellitic acid, trimellitic acid, reference compound] |  | 3.5 |
| OB(O)O [Boric acid, boric acid, reference compound] |  | 9.8 |
| O=C(O)c1cc(C(=O)O)c(C(=O)O)cc1C(=O)O [Pyromellitic acid, pyromellitic acid, reference compound] |  | 2.8 |
| O=C(O)c1ccccc1C(=O)OCCCCCCCCCCO [Example A11, phthalic acid 1,10-decanediol monoester] | 4.0 |  |
| CCCCCCCCCCOC(=O)c1ccccc1C(=O)O [Example A10, phthalic acid n-decanol monoester] | 3.9 |  |
| O=C(O)c1ccc(C(=O)O)o1 [2,5-Furandicarboxylic acid, 2,5-furandicarboxylic acid, reference compound] |  | 3.4 |
